Data on five molecules can be found in ChEMBL document CHEMBL1212754, “SmQnr contributes to intrinsic resistance to quinolones in Stenotrophomonas maltophilia” (2010).

Common to all, as to assay type: functional
In experiment [1] the test system is Stenotrophomonas maltophilia. The experiment can be described thus: Antibacterial activity against Stenotrophomonas maltophilia MBS109 containing chromosomally encoded Smqnr gene by epsilon test.
The subject of experiment [2] is Stenotrophomonas maltophilia. Nature of the experiment: Antibacterial activity against Stenotrophomonas maltophilia D457 containing chromosomally encoded Smqnr gene by epsilon test.
Experiment [3] deals with Stenotrophomonas maltophilia. The experiment can be described thus: Antibacterial activity against Stenotrophomonas maltophilia MBS101 containing plasmid encoded Smqnr gene by epsilon test.
The test system of experiment [4] is Stenotrophomonas maltophilia. The experiment can be described thus: Antibacterial activity against Stenotrophomonas maltophilia MBS108 containing both chromosomally and plasmid encoded Smqnr gene by epsilon test.
For experiment [5], the system named is Stenotrophomonas maltophilia. Nature of the experiment: Antibacterial activity against Stenotrophomonas maltophilia MBS100 deficient in Smqnr gene by epsilon test.
For experiment [6], the system named is Stenotrophomonas maltophilia. The experiment can be described thus: Antibacterial activity against Stenotrophomonas maltophilia MBS82 deficient in Smqnr gene by epsilon test.

Converted amounts (≈) assume the structure as drawn.

What is called MIC is the least concentration at which growth counts as inhibited. `O=C(O)c1cn(C2CC2)c2cc(N3CCNCC3)c(F)cc2c1=O` [CIPROFLOXACIN]: the MIC came out at 0.75 µg/mL (≈ 2.26 µM) in experiment [1], 0.75 µg/mL (≈ 2.26 µM) in experiment [2], 2 µg/mL (≈ 6.04 µM) in experiment [3] and 2 µg/mL (≈ 6.04 µM) in experiment [4].

On to `COc1c(N2CCNC(C)C2)c(F)cc2c(=O)c(C(=O)O)cn(C3CC3)c12` (stereo not drawn) [GATIFLOXACIN], for which the MIC in experiment [1] was found to be 0.25 µg/mL (≈ 0.666 µM); in experiment [5], 0.125 µg/mL (≈ 0.333 µM); in experiment [2], 0.25 µg/mL (≈ 0.666 µM); in experiment [6], 0.125 µg/mL (≈ 0.333 µM); in experiment [3] it was 0.75 µg/mL (≈ 2 µM); in experiment [4], 0.75 µg/mL (≈ 2 µM).

For `C[C@H]1COc2c(N3CCN(C)CC3)c(F)cc3c(=O)c(C(=O)O)cn1c23.C[C@H]1COc2c(N3CCN(C)CC3)c(F)cc3c(=O)c(C(=O)O)cn1c23.O` [LEVOFLOXACIN], the MIC came out at 0.5 µg/mL in experiment [1]; 0.25 µg/mL in experiment [5]; 0.5 µg/mL in experiment [2]; 0.25 µg/mL in experiment [6]; 1 µg/mL in experiment [3]; 1 µg/mL in experiment [4].

With `COc1c(N2C[C@@H]3CCCN[C@@H]3C2)c(F)cc2c(=O)c(C(=O)O)cn(C3CC3)c12` [MOXIFLOXACIN], the MIC in experiment [1] came to 0.19 µg/mL (≈ 0.473 µM); in experiment [5], 0.064 µg/mL (≈ 0.159 µM); in experiment [2], 0.19 µg/mL (≈ 0.473 µM); in experiment [6] it was 0.064 µg/mL (≈ 0.159 µM); in experiment [3] it was 0.75 µg/mL (≈ 1.87 µM); in experiment [4], 0.75 µg/mL (≈ 1.87 µM).

In the case of `CC1COc2c(N3CCN(C)CC3)c(F)cc3c(=O)c(C(=O)O)cn1c23` (stereo not drawn) [OFLOXACIN], the MIC was 1 µg/mL (≈ 2.77 µM) in experiment [1]; 0.5 µg/mL (≈ 1.38 µM) in experiment [5]; 1 µg/mL (≈ 2.77 µM) in experiment [2]; 0.5 µg/mL (≈ 1.38 µM) in experiment [6]; 3 µg/mL (≈ 8.3 µM) in experiment [3]; 3 µg/mL (≈ 8.3 µM) in experiment [4].
